Results as given in the NIST ThermoML archive (doi:10.1016/j.tca.2016.08.006).
Where “and” joins values, the source holds several entries; their conditions need not be identical. Identical values can stand only once.

How the values were obtained:
[1] = 101.33 kPa, Crystal, Vacuum adiabatic calorimetry
[2] = molar heat capacity at constant pressure; conditions: 101.33 kPa, Crystal, Vacuum adiabatic calorimetry

[S-2].[Zn+2] [zinc sulfide]
Conditions | molar entropy, [1] [J/K/mol] | molar heat capacity at constant pressure, [2]
1 K | 3.1e-05 | 0.000119 J/K/mol
2 K | 0.00031 | 0.000958 J/K/mol
4 K | 0.002561 | 0.007765 J/K/mol
6 K | 0.00879 | 0.02685 J/K/mol
8 K | 0.0213 | 0.06618 J/K/mol
10 K | 0.043 | 0.1376 J/K/mol
12 K | 0.078 | 0.2601 J/K/mol
13.23 K | – | 0.1984 J/K/mol
14 K | 0.1317 | 0.4569 J/K/mol
16 K | 0.2106 | 0.7475 J/K/mol
16.01 K | – | 0.5445 J/K/mol
17.97 K | – | 1.025 J/K/mol
18 K | 0.3203 | 1.14 J/K/mol
19.61 K | – | 1.553 J/K/mol
20 K | 0.4649 | 1.628 J/K/mol
21.54 K | – | 2.093 J/K/mol
23.46 K | – | 2.68 J/K/mol
25 K | 0.987 | 3.17 J/K/mol
25.99 K | – | 3.508 J/K/mol
28.89 K | – | 4.52 J/K/mol
30 K | 1.72 | 4.941 J/K/mol
31.66 K | – | 5.487 J/K/mol
34.78 K | – | 6.6 J/K/mol
35 K | 2.617 | 6.734 J/K/mol
37.93 K | – | 7.702 J/K/mol
40 K | 3.629 | 8.454 J/K/mol
41.05 K | – | 8.761 J/K/mol
44.22 K | – | 9.788 J/K/mol
45 K | 4.72 | 10.08 J/K/mol
47.06 K | – | 10.71 J/K/mol
50 K | 5.863 | 11.63 J/K/mol
51.43 K | – | 12.16 J/K/mol
53.49 K | – | 12.83 J/K/mol
55 K | 7.041 | 13.11 J/K/mol
55.51 K | – | 13.31 J/K/mol
57.5 K | – | 14 J/K/mol
59.41 K | – | 14.51 J/K/mol
60 K | 8.244 | 14.56 J/K/mol
61.72 K | – | 15.17 J/K/mol
64.45 K | – | 15.93 J/K/mol
65 K | 9.466 | 15.99 J/K/mol
67.18 K | – | 16.76 J/K/mol
69.7 K | – | 17.39 J/K/mol
70 K | 10.7 | 17.39 J/K/mol
72.52 K | – | 18.2 J/K/mol
75 K | 11.95 | 18.77 J/K/mol
75.26 K | – | 18.97 J/K/mol
77.99 K | – | 19.74 J/K/mol
80 K | 13.2 | 20.13 J/K/mol
80.73 K | – | 20.47 J/K/mol
83.59 K | – | 21.24 J/K/mol
85 K | 14.47 | 21.46 J/K/mol
86.48 K | – | 22.17 J/K/mol
90 K | 15.73 | 22.77 J/K/mol
91.62 K | – | 23.27 J/K/mol
95 K | 16.99 | 24.03 J/K/mol
95.13 K | – | 24.19 J/K/mol
98.85 K | – | 25.12 J/K/mol
100 K | 18.26 | 25.25 J/K/mol
102.42 K | – | 26.14 J/K/mol
106.06 K | – | 26.79 J/K/mol
109.93 K | – | 27.68 J/K/mol
110 K | 20.77 | 27.55 J/K/mol
113.87 K | – | 28.52 J/K/mol
117.79 K | – | 29.35 J/K/mol
120 K | 23.26 | 29.66 J/K/mol
121.86 K | – | 30.17 J/K/mol
125.61 K | – | 30.87 J/K/mol
129.43 K | – | 31.59 J/K/mol
130 K | 25.71 | 31.58 J/K/mol
133.29 K | – | 32.28 J/K/mol
137.15 K | – | 32.9 J/K/mol
140 K | 28.12 | 33.3 J/K/mol
141.04 K | – | 33.52 J/K/mol
144.93 K | – | 34.17 J/K/mol
149.88 K | – | 35.06 J/K/mol
150 K | 30.47 | 34.85 J/K/mol
155.67 K | – | 35.74 J/K/mol
159.17 K | – | 36.12 J/K/mol
160 K | 32.76 | 36.24 J/K/mol
164 K | – | 36.77 J/K/mol
168.93 K | – | 37.35 J/K/mol
170 K | 35 | 37.49 J/K/mol
173.91 K | – | 37.96 J/K/mol
178.77 K | – | 38.48 J/K/mol
180 K | 37.17 | 38.6 J/K/mol
184.05 K | – | 38.9 J/K/mol
189.4 K | – | 39.43 J/K/mol
190 K | 39.29 | 39.6 J/K/mol
194.4 K | – | 39.95 J/K/mol
199.39 K | – | 40.39 J/K/mol
200 K | 41.34 | 40.5 J/K/mol
204.53 K | – | 40.77 J/K/mol
209.77 K | – | 41.2 J/K/mol
210 K | 43.34 | 41.32 J/K/mol
214.65 K | – | 41.55 J/K/mol
219.66 K | – | 41.93 J/K/mol
220 K | 45.28 | 42.05 J/K/mol
224.69 K | – | 42.27 J/K/mol
230 K | 47.16 | 42.62 J/K/mol and 42.72 J/K/mol
235.27 K | – | 42.91 J/K/mol
240 K | 48.99 | 43.32 J/K/mol
240.27 K | – | 43.24 J/K/mol
245.33 K | – | 43.69 J/K/mol
250 K | 50.77 | 43.88 J/K/mol
250.45 K | – | 43.78 J/K/mol
258.21 K | – | 44.25 J/K/mol
260 K | 52.5 | 44.38 J/K/mol
263.65 K | – | 44.4 J/K/mol
269.02 K | – | 44.71 J/K/mol
270 K | 54.19 | 44.84 J/K/mol
274.56 K | – | 44.99 J/K/mol
280 K | 55.83 | 45.27 J/K/mol
280.13 K | – | 45.24 J/K/mol
285.72 K | – | 45.48 J/K/mol
290 K | 57.42 | 45.66 J/K/mol
291.19 K | – | 45.73 J/K/mol
297.09 K | – | 45.7 J/K/mol
300 K | 58.98 | 46.03 J/K/mol
304.72 K | – | 46.14 J/K/mol
310 K | 60.49 | 46.36 J/K/mol
312.85 K | – | 46.5 J/K/mol
320 K | 61.97 | 46.68 J/K/mol
